Reference: patent US9868935B2, “Composition and method of stem cells for preservation of cardiac tissue” (CRIOESTAMINAL, SAÚDE E TECNOLOGIA, SA., priority 2012, dated 2018)

System: CD34+ cells encapsulated in fibrin gel
Assay: Survival of CD34+ cells encapsulated in fibrin gels in hypoxia and serum deprived conditions
Format: cell-based, human
Details: LPA-treated
Protocol: In an embodiment, fibrin gels were formed by crosslinking of fibrinogen in the presence of thrombin (both from Sigma-Aldrich). The fibrinogen solution was prepared by dissolving human fibrinogen in Tris-buffered saline (TBS) (preferably, Sigma-Aldrich), pH 7.4 (20 mg/mL), and then sterilized by filtering through a 0.22 μm syringe filter (Acrodisc, Pall, NY, USA). Fresh thrombin solutions were prepared by dissolving human thrombin in TBS at pH 7.4 at a concentration of 50 U/mL. Fibrin gels (200 μL, unless otherwise stated) were prepared by mixing three different components: fibrinogen (10 mg/mL), CaCl2 (preferably, Merck, NJ, USA) ([…]) and thrombin (0.2 U/mL). This solution was allowed to gel at 37° C. and 100% relative humidity.
Injectable scaffolds are very promising vehicles to deliver stem cells for regenerative medicine since they provide a favorable structural support for cell survival and proliferation (Pedroso, D. C., et al., Improved survival, vascular differentiation and wound healing potential of stem cells co-cultured with endothelial cells. PLoS One, 2011. 6(1): p. e16114; Kraehenbuehl, T. P., R. Langer, and L. S. Ferreira, Three-dimensional biomaterials for the study of human pluripotent stem cells. Nat Methods, 2011. 8(9): p. 731-6; Nakamuta, J. S., et al., Cell therapy attenuates cardiac dysfunction post myocardial infarction: effect of timing, routes of injection and a fibrin scaffold. PLoS One, 2009. 4(6): p. e6005.). Several studies have shown that cells transplanted with scaffolds in the cardiac setting improved cell survival, induced angiogenesis and preserved cardiac function after infarction (Nakamuta, J. S., et al., Cell therapy attenuates cardiac dysfunction post myocardial infarction: effect of timing, routes of injection and a fibrin scaffold. PLoS One, 2009. 4(6): p. e6005; Christman, K. L., et al., Fibrin glue alone and skeletal myoblasts in a fibrin scaffold preserve cardiac function after myocardial infarction. Tissue Eng, 2004. 10(3-4): p. 403-9; Kraehenbuehl, T. P., et al., Human embryonic stem cell-derived microvascular grafts for cardiac tissue preservation after myocardial infarction. Biomaterials, 2011. 32(4): p. 1102-9; Kutschka, I., et al., Collagen matrices enhance survival of transplanted cardiomyoblasts and contribute to functional improvement of ischemic rat hearts. Circulation, 2006. 114(1 Suppl): p. I167-73). […] Cell viability was evaluated by flow cytometry using Annexin V/propidium iodide (PI) staining.

## lysophosphatidic acid [LPA]
Encapsulated in fibrin gel, hypoxia day 1
  viable cells: 69.0±0.7%
Encapsulated in fibrin gel, hypoxia day 3
  viable cells: 51.1±0.8%
non-encapsulated, hypoxia day 1
  viable cells: 76.7±1.5%
non-encapsulated, hypoxia day 3
  viable cells: 37.2±6.6%
